Source: US10077243B2, “Compounds for treating disorders mediated by metabotropic glutamate receptor 5, and methods of use thereof” (Sunovion Pharmaceuticals Inc., priority 2009, dated 2018)

target: T1, human mGluR5 (Homo sapiens, UniProt P41594); test: In vitro cell-based FLIPR calcium assay for positive modulation of the activation of mGluR5 by glutamate (PAM EC50); details: HEK293/GLAST cells expressing recombinant human mGluR5; FLIPR calcium signal; glutamate added at its EC20; read-out: mGluR5 PAM EC50
T1 construct: expressed in transfected cells; host or cells: HEK293 cells stably expressing rat GLAST (EAAT1), stably transfected with pcDNAzeo3.1 carrying synthetic human mGluR5 DNA; zeocin-selected single clones
T1 sequence (P41594 21-1212): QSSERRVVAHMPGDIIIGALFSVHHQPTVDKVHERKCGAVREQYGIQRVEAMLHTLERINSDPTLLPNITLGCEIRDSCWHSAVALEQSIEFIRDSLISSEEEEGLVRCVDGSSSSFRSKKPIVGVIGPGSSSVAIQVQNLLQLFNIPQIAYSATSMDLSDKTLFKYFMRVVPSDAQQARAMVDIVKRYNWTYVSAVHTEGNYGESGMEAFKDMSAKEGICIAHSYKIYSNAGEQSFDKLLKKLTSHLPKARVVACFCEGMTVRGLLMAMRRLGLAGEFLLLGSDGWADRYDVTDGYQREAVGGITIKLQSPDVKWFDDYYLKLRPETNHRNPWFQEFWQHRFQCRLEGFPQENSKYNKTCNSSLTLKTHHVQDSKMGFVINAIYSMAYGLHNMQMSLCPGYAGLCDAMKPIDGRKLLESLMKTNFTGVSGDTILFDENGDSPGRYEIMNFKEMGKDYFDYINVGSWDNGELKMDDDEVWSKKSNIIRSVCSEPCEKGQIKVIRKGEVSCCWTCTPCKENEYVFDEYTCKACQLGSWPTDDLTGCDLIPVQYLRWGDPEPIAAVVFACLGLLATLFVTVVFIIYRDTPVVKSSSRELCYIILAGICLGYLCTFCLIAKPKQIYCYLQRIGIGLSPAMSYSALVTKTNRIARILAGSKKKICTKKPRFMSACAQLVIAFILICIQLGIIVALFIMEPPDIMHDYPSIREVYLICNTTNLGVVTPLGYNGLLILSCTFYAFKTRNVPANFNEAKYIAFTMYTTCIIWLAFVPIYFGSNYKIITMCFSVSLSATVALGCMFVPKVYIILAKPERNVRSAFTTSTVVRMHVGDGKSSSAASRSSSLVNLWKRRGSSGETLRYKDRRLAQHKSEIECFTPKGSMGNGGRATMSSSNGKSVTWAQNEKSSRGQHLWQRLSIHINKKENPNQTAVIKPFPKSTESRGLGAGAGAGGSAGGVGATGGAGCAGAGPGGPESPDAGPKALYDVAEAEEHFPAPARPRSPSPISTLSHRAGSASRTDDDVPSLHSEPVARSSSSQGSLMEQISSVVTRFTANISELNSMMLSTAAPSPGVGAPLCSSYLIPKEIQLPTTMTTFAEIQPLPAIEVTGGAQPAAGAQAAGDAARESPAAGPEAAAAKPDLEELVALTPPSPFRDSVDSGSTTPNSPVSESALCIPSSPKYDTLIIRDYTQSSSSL
Procedure, shortened: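 HEK293/GLAST cells stably expressing mGluR5 were loaded with calcium-sensitive dye (25 °C, 45–60 min) in HBSS/20 mM HEPES. Test compounds were assayed in buffer containing glutamate at that day's EC20, with FLIPR fluorescence recorded. Controls contained 0.3% DMSO without compound.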

| EC50 [nM] | SMILES |
| --- | --- |
| 10 to 30 | O=c1c2ccc(C#Cc3ccccc3)cc2nc2n1CCC1(CC2)OCCO1 [Example 7.1] |
| 100 to 300 | CC1(C)CCn2c(nc3cc(/C=C/c4cccc(C#N)n4)ccc3c2=O)C1 [Example 20.9, (E)-6-(2-(7,7-dimethyl-11-oxo-7,8,9,11-tetrahydro-6H-pyrido[2,1-b]quinazolin-3-yl)vinyl)picolinonitrile] |
| 30 to 100 | O=c1c2ccc(C#Cc3ccccn3)cc2nc2n1CCC1(CCCO1)CC2 (centres unmarked) [Example 6.27, 3-(pyridin-2-ylethynyl)-4′,5′,9,10-tetrahydro-3′H,6H-spiro[azepino[2,1-b]quinazoline-8,2′-furan]-12(7H)-one] |
| 30 to 100 | O=c1c2ccc(C#Cc3ccccn3)cc2nc2n1CCC(C(F)(F)F)CC2 (centres unmarked) [Example 6.38, 3-(pyridin-2-ylethynyl)-8-(trifluoromethyl)-7,8,9,10-tetrahydroazepino[2,1-b]quinazolin-12(6H)-one] |
| < 10 | O=c1c2c(nc3cc(C#Cc4ccncc4)ccn13)CCCCC2 [Example 16.5, 3-(pyridin-4-ylethynyl)-7,8,9,10-tetrahydrocyclohepta[d]pyrido[1,2-a]pyrimidin-11(6H)-one] |
| 100 to 300 | CNC(=O)CN1CCc2nc3cc(C#Cc4cccc(F)c4)ccc3c(=O)n2CC1 [Example 8.15, 2-(8-((3-fluorophenyl)ethynyl)-11-oxo-1,2,4,5-tetrahydro-[1,4]diazepino[7,1-b]quinazolin-3(11H)-yl)-N-methylacetamide] |
| 300 to 1000 | Cc1scnc1C#Cc1ccc2c(=O)n3c(nc2c1)CCC1(CC3)OCCO1 [Example 7.63] |
| 100 to 300 | O=c1c2ccc(C#Cc3ccccn3)cc2nc2n1CC1CCCCN1CC2 (centres unmarked) [Example 9.2, 3-(pyridin-2-ylethynyl)-9,10,11,12,12a,13-hexahydro-6H-pyrido[2′,1′:3,4][1,4]diazepino[7,1-b]quinazolin-15(7H)-one] |
| 30 to 100 | O=c1c2ccc(C#Cc3ccccc3F)cc2nc2n1CCC1(CC2)OCCO1 [Example 7.2] |
| 100 to 300 | O=c1c2ccc(CCc3ccccc3)cc2nc2n1CCCCC2 [Example 21.1, 3-phenethyl-7,8,9,10-tetrahydroazepino[2,1-b]quinazolin-12(6H)-one] |
| 100 to 300 | O=c1c2ccc(C#Cc3cccnc3)cc2nc2n1CCC(O)CC2 (centres unmarked) [Example 6.17, 8-hydroxy-3-(pyridin-3-ylethynyl)-7,8,9,10-tetrahydroazepino[2,1-b]quinazolin-12(6H)-one] |
| 300 to 1000 | CC1Cc2nc3cc(C#Cc4ccccn4)cnc3c(=O)n2C1 (centres unmarked) [Example 11.13, 7-methyl-3-(pyridin-2-ylethynyl)-7,8-dihydropyrido[3,2-d]pyrrolo[1,2-a]pyrimidin-10(6H)-one] |
| 30 to 100 | Cc1cnc(NC(=O)c2ccn3c(=O)c4c(nc3c2)CCCCC4)s1 [Example 28.3, N-(5-methylthiazol-2-yl)-11-oxo-6,7,8,9,10,11-hexahydrocyclohepta[d]pyrido[1,2-a]pyrimidine-3-carboxamide] |
| 300 to 1000 | Cc1cc(F)ccc1C#Cc1ccc2c(=O)n3c(nc2c1)CCC1(CC3)OCCO1 [Example 7.6] |
| 10 to 30 | C=CCN1CCc2nc3cc(C#Cc4cccc(F)c4)ccc3c(=O)n2CC1 [Example 8.12, 3-allyl-8-((3-fluorophenyl)ethynyl)-2,3,4,5-tetrahydro-[1,4]diazepino[7,1-b]quinazolin-11(1H)-one] |
| 10 to 30 | O=c1c2ccc(C#Cc3cccc(F)c3)cc2nc2n1CCC1(CC2)OCCO1 [Example 6.34, 3-((3-fluorophenyl)ethynyl)-9,10-dihydro-6H-spiro[azepino[2,1-b]quinazoline-8,2′-[1,3]dioxolan]-12(7H)-one] |
| 100 to 300 | Cc1cccc(C#Cc2ccc3c(=O)n4c(nc3c2)CCC2(CC4)OCCO2)c1 [Example 7.31] |
| 100 to 300 | N#CC1CCc2nc3cc(C#Cc4ccccn4)ccc3c(=O)n2CC1 (centres unmarked) [Example 6.39, 12-oxo-3-(pyridin-2-ylethynyl)-6,7,8,9,10,12-hexahydroazepino[2,1-b]quinazoline-8-carbonitrile] |
| 10 to 30 | Cc1cnc(C#Cc2ccc3c(=O)n4c(nc3c2)CCC(C)CC4)s1 (centres unmarked) [Example 6.8, 8-methyl-3-((5-methylthiazol-2-yl)ethynyl)-7,8,9,10-tetrahydroazepino[2,1-b]quinazolin-12(6H)-one] |
| 300 to 1000 | CC1Cc2nc3cc(C#Cc4ccccn4)ccc3c(=O)n2CCN1C (centres unmarked) [Example 8.28, 3,4-dimethyl-8-(pyridin-2-ylethynyl)-2,3,4,5-tetrahydro-[1,4]diazepino[7,1-b]quinazolin-11(1H)-one] |
| 100 to 300 | COCCN1CCc2nc3cc(C#Cc4cccc(F)c4)ccc3c(=O)n2CC1 [Example 8.10, 8-((3-fluorophenyl)ethynyl)-3-(2-methoxyethyl)-2,3,4,5-tetrahydro-[1,4]diazepino[7,1-b]quinazolin-11(1H)-one] |

More lines, now with the values behind:

| SMILES | EC50 [nM] |
| --- | --- |
| COCC1CCc2nc3cc(C#Cc4ccccn4)ccc3c(=O)n21 (centres unmarked) [Example 3.7, 1-(methoxymethyl)-6-(pyridin-2-ylethynyl)-2,3-dihydropyrrolo[2,1-b]quinazolin-9(1H)-one] | 30 to 100 |
| Cn1c(C2CCOC2)nc2cc(C#Cc3cccc(F)c3)ccc2c1=O (centres unmarked) [Example 2.2, 7-((3-fluorophenyl)ethynyl)-3-methyl-2-(tetrahydrofuran-3-yl)quinazolin-4(3H)-one] | 300 to 1000 |
| Cn1cnc2cc(C#Cc3nccs3)ccc2c1=O [Example 1.5, 3-methyl-7-(thiazol-2-ylethynyl)quinazolin-4(3H)-one] | 300 to 1000 |
| COCC1CCc2nc3cc(C#Cc4cccc(F)c4)ccc3c(=O)n21 (centres unmarked) [Example 3.6, 6-((3-fluorophenyl)ethynyl)-1-(methoxymethyl)-2,3-dihydropyrrolo[2,1-b]quinazolin-9(1H)-one] | < 10 |
| O=c1c2ccc(C#Cc3ccccn3)cc2nc2n1C1CCC2CC1 [Example 4.48, 3-(pyridin-2-ylethynyl)-8,9-dihydro-6H-6,9-ethanopyrido[2,1-b]quinazolin-11(7H)-one] | < 10 |
| CC1(F)CCc2nc3cc(C#Cc4ccccn4)ccc3c(=O)n2CC1 (single isomer, unassigned) [Example 6.48a/6.48b slower moving enantiomer (fraction 2), 8-fluoro-8-methyl-3-(pyridin-2-ylethynyl)-7,8,9,10-tetrahydroazepino[2,1-b]quinazolin-12(6H)-one] | < 10 |
| CN(C)C1CCc2nc3cc(C#Cc4cccc(F)c4)ccc3c(=O)n2C1 (centres unmarked) [Example 4.30, 8-(dimethylamino)-3-((3-fluorophenyl)ethynyl)-8,9-dihydro-6H-pyrido[2,1-b]quinazolin-11(7H)-one] | 100 to 300 |
| CN1Cc2nc3cc(C#Cc4ccccn4)ccc3c(=O)n2CC1(C)C [Example 5.18, 2,3,3-trimethyl-9-(pyridin-2-ylethynyl)-3,4-dihydro-1H-pyrazino[2,1-b]quinazolin-6(2H)-one] | 300 to 1000 |
| O=c1c2ccc(C#Cc3ccc(F)cc3)cc2ncn1CC1CCCO1 (centres unmarked) [Example 1.13, 7-((4-fluorophenyl)ethynyl)-3-((tetrahydrofuran-2-yl)methyl)quinazolin-4(3H)-one] | 30 to 100 |
| CC1(C)CCc2nc3cc(C#Cc4ccccn4)ccc3c(=O)n2C1 [Example 4.16, 8,8-dimethyl-3-(pyridin-2-ylethynyl)-8,9-dihydro-6H-pyrido[2,1-b]quinazolin-11(7H)-one] | < 10 |
| CN1CCCC1Cn1cnc2cc(C#Cc3cccc(F)c3)ccc2c1=O (centres unmarked) [Example 1.21, 7-((3-fluorophenyl)ethynyl)-3-((1-methylpyrrolidin-2-yl)methyl)quinazolin-4(3H)-one] | 100 to 300 |
| O=c1c2ccc(C#Cc3ccc(F)cc3)cc2nc2n1CCCC2 [Example 4.5, 3-((4-fluorophenyl)ethynyl)-8,9-dihydro-6H-pyrido[2,1-b]quinazolin-11(7H)-one] | < 10 |
| CC12CCCN1Cc1nc3cc(C#Cc4ccccn4)ccc3c(=O)n1C2 (centres unmarked) [Example 4.49, 13a-methyl-8-(pyridin-2-ylethynyl)-2,3,13,13a-tetrahydro-1H-pyrrolo[1′,2′:4,5]pyrazino[2,1-b]quinazolin-11 (5H)-one] | 30 to 100 |
| CC1(C)CNc2nc3cc(C#Cc4ccccn4)ccc3c(=O)n2C1 [Example 5.26, 3,3-dimethyl-9-(pyridin-2-ylethynyl)-3,4-dihydro-1H-pyrimido[2,1-b]quinazolin-6(2H)-one] | < 10 |
| O=c1c2c(nc3cc(C#Cc4ccncc4)ccn13)CCCCCC2 [Example 17.4, 3-(pyridin-4-ylethynyl)-8,9,10,11-tetrahydro-6H-cycloocta[d]pyrido[1,2-a]pyrimidin-12(7H)-one] | < 10 |
| CC1(C)Cc2nc3cc(C#Cc4ccccn4)ccc3c(=O)n2C1 [Example 3.20, 2,2-dimethyl-6-(pyridin-2-ylethynyl)-2,3-dihydropyrrolo[2,1-b]quinazolin-9(1H)-one] | < 10 |
| CC1(C)CC(F)c2nc3cc(C#Cc4ccccn4)ccc3c(=O)n2C1 (centres unmarked) [Example 4.47, 6-fluoro-8,8-dimethyl-3-(pyridin-2-ylethynyl)-8,9-dihydro-6H-pyrido[2,1-b]quinazolin-11(7H)-one] | < 10 |
| O=c1c2ccc(C#Cc3cccc(F)c3)cc2nc2n1CC1CCCN1C2 (centres unmarked) [Example 5.21, 8-((3-fluorophenyl)ethynyl)-2,3,13,13a-tetrahydro-1H-pyrrolo[1′,2′:4,5]pyrazino[2,1-b]quinazolin-11(5H)-one] | < 10 |
| CC1CCc2nc3cc(C#Cc4ccccn4)cnc3c(=O)n2CC1 (single isomer, unassigned) [11.9a/11.9b faster moving enantiomer (fraction 1), 8-methyl-3-(pyridin-2-ylethynyl)-7,8,9,10-tetrahydropyrido[3′,2′: 4,5]pyrimido[1,2-a]azepin-12(6H)-one] | 30 to 100 |
| CN1CCn2c(nc3cc(C#Cc4ccc(F)cc4)ccc3c2=O)C1 [Example 5.3, 9-((4-fluorophenyl)ethynyl)-2-methyl-3,4-dihydro-1H-pyrazino[2,1-b]quinazolin-6(2H)-one] | 10 to 30 |
